T1: Rab3a (Homo sapiens, UniProt P20336)
T1 construct: myc-tagged, expressed in HEK293T, immunoprecipitated
T1 sequence (P20336 1-220): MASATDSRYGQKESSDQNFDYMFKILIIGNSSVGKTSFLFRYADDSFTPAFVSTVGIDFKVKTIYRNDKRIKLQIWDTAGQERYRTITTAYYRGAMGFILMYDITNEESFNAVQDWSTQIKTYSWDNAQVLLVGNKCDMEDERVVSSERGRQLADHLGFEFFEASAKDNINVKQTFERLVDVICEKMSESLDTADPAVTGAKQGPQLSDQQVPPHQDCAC

T2: Rab5b (Homo sapiens, UniProt P61020)
T2 construct: GST fusion from E. coli (in vitro); myc-tagged in HEK293T (cell assay)
T2 sequence (P61020 1-215): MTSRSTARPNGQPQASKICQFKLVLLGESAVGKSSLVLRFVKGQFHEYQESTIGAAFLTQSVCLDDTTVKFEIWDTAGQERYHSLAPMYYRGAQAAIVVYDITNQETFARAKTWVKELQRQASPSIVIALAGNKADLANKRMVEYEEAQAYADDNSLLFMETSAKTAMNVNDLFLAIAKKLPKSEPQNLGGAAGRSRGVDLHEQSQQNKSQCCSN

T3: Rab31 (Homo sapiens, UniProt Q13636)
T3 sequence (Q13636 1-195): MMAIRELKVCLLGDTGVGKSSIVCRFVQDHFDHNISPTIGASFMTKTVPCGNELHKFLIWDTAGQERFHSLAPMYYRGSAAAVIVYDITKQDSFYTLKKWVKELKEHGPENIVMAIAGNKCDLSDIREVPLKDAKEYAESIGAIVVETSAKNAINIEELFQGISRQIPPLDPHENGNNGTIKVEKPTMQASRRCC

T4: Rab21 (Homo sapiens, UniProt Q9UL25)
T4 sequence (Q9UL25 1-225 limits assumed): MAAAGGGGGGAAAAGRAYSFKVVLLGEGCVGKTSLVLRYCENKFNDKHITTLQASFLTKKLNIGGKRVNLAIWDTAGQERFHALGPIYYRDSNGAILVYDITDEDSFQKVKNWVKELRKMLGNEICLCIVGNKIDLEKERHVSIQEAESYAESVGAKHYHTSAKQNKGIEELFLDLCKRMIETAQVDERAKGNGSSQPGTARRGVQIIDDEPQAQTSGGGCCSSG

T5: Rab22 (Homo sapiens, UniProt Q9UL26)
T5 sequence (Q9UL26 1-194): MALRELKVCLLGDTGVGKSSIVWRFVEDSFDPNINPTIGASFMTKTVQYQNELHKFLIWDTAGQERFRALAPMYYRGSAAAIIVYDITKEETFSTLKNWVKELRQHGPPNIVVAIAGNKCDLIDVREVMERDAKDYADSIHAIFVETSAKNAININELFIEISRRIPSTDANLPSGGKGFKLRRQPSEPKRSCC

T6: Rab11a (Homo sapiens, UniProt P62491)
T6 construct: myc-tagged, expressed in HEK293T, immunoprecipitated
T6 sequence (P62491 2-213): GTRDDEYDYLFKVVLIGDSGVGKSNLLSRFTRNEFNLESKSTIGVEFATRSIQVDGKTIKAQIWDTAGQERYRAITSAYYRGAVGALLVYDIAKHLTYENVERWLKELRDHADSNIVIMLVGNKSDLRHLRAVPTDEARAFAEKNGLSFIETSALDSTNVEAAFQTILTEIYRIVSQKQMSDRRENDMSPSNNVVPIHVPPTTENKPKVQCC

B1: FLAG-RIN3 (natural protein, UniProt Q8TB24 1-985, looked up)
chain: MIRHAGAPARGDPTGPVPVVGKGEEEEEEDGMRLCLPANPKNCLPHRRGISILEKLIKTCPVWLQLSLGQAEVARILHRVVAGMFLVRRDSSSKQLVLCVHFPSLNESSAEVLEYTIKEEKSILYLEGSALVFEDIFRLIAFYCVSRDLLPFTLRLPQAILEASSFTDLETIANLGLGFWDSSLNPPQERGKPAEPPRDRAPGFPLVSSLRPTAHDANCACEIELSVGNDRLWFVNPIFIEDCSSALPTDQPPLGNCPARPLPPTSDATSPTSRWAPRRPPPPPPVLPLQPCSPAQPPVLPALAPAPACPLPTSPPVPAPHVTPHAPGPPDHPNQPPMMTCERLPCPTAGLGPLREEAMKPGAASSPLQQVPAPPLPAKKNLPTAPPRRRVSERVSLEDQSPGMAAEGDQLSLPPQGTSDGPEDTPRESTEQGQDTEVKASDPHSMPELPRTAKQPPVPPPRKKRISRQLASTLPAPLENAELCTQAMALETPTPGPPREGQSPASQAGTQHPPAQATAHSQSSPEFKGSLASLSDSLGVSVMATDQDSYSTSSTEEELEQFSSPSVKKKPSMILGKARHRLSFASFSSMFHAFLSNNRKLYKKVVELAQDKGSYFGSLVQDYKVYSLEMMARQTSSTEMLQEIRTMMTQLKSYLLQSTELKALVDPALHSEEELEAIVESALYKCVLKPLKEAINSCLHQIHSKDGSLQQLKENQLVILATTTTDLGVTTSVPEVPMMEKILQKFTSMHKAYSPEKKISILLKTCKLIYDSMALGNPGKPYGADDFLPVLMYVLARSNLTEMLLNVEYMMELMDPALQLGEGSYYLTTTYGALEHIKSYDKITVTRQLSVEVQDSIHRWERRRTLNKARASRSSVQDFICVSYLEPEQQARTLASRADTQAQALCAQCAEKFAVERPQAHRLFVLVDGRCFQLADDALPHCIKGYLLRSEPKRDFHFVYRPLDGGGGGGGGSPPCLVVREPNFL
notes: this molecule is used for it; source: HEK293T, transfected, in lysate

Columns and labels:
[1] = molecular target: T1, Rab3a; assay: […] metabolic labelling, anti-myc immunoprecipitation, TLC of bound nucleotides; type: cell-based; details: HEK293T cells, mock or RINL co-expression, labelled compound
[2] = molecular target: T2, Rab5b; assay: as above; type: cell-based; details: HEK293T cells, 4 h 32Pi; mock or GEF co-expression; labelled compound
[3] = molecular target: T3, Rab31; assay: as above; type: cell-based; design: myc-tagged in HEK293T (cell assay); details: HEK293T cells, 4 h 32Pi; mock or GEF co-expression; labelled compound
[4] = molecular target: T4, Rab21; assay: as above; type: cell-based; design: myc-tagged in HEK293T (cell assay); details: HEK293T cells, 4 h 32Pi; mock or GEF co-expression; labelled compound
[5] = molecular target: T5, Rab22; assay: as above; type: cell-based; design: gene RAB22A; myc-tagged in HEK293T (cell assay); details: HEK293T cells, 4 h 32Pi; mock or GEF co-expression; labelled compound
[6] = molecular target: T4, Rab21; assay: […]GTPgammaS filter binding time course; design: GST fusion from E. coli (in vitro); myc-tagged in HEK293T (cell assay); details: 1 µM [35S]GTPgammaS, 30 °C; with or without FLAG-RINL or Rabex-5; labelled compound
[7] = molecular target: T3, Rab31; assay: […]GTPgammaS filter binding time course; design: GST fusion from E. coli (in vitro); myc-tagged in HEK293T (cell assay); details: 1 µM [35S]GTPgammaS, 30 °C; with or without FLAG-RINL or Rabex-5; labelled compound
[8] = molecular target: T5, Rab22; assay: […]GTPgammaS filter binding time course; design: gene RAB22A; GST fusion from E. coli (in vitro); myc-tagged in HEK293T (cell assay); details: 1 µM [35S]GTPgammaS, 30 °C; with or without FLAG-RINL or Rabex-5; labelled compound
[9] = molecular target: T7, Rab7a (Homo sapiens, UniProt P51149); assay: […] metabolic labelling, anti-myc immunoprecipitation, TLC of bound nucleotides; type: cell-based; details: HEK293T cells, mock or RINL co-expression, labelled compound
T7 construct: myc-tagged, expressed in HEK293T, immunoprecipitated
T7 sequence (P51149 2-207): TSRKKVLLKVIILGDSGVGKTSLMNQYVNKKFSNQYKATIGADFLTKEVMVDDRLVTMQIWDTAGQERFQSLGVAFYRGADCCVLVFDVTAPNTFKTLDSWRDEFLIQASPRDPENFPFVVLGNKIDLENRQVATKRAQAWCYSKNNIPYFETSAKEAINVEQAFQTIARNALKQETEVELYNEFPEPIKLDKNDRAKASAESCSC

[10] = molecular target: T6, Rab11a; assay: as above; type: cell-based; details: HEK293T cells, mock or RINL co-expression, labelled compound
[11] = molecular target: the molecule itself; assay: not stated; data not shown; tetramers composed of anti-parallel linkages of two parallel dimers

Molecule	32Pi metabolic labelling, anti-myc immunoprecipitation, TLC of bound nucleotides [1]	32Pi metabolic labelling, anti-myc immunoprecipitation, TLC of bound nucleotides [2]	32Pi metabolic labelling, anti-myc immunoprecipitation, TLC of bound nucleotides [3]	32Pi metabolic labelling, anti-myc immunoprecipitation, TLC of bound nucleotides [4]	32Pi metabolic labelling, anti-myc immunoprecipitation, TLC of bound nucleotides [5]	[35S]GTPgammaS filter binding time course [6]	[35S]GTPgammaS filter binding time course [7]	[35S]GTPgammaS filter binding time course [8]	32Pi metabolic labelling, anti-myc immunoprecipitation, TLC of bound nucleotides [9]	32Pi metabolic labelling, anti-myc immunoprecipitation, TLC of bound nucleotides [10]	stoichiometry N [11]
Nc1nc2c(ncn2[C@@H]2O[C@H](COP(=O)(O)OP(=O)(O)OP(=O)(O)O)[C@@H](O)[C@H]2O)c(=O)[nH]1 [GTP]	The percentages (%) of each GTP-bound Rab member in the metabolically radiolabeled cells are shown	Rab5b was present in a GTP-bound form in mock-transfected cells	RINL significantly increased GTP-Rab21, GTP-Rab22, and GTP-Rab31 formation	RINL significantly increased GTP-Rab21, GTP-Rab22, and GTP-Rab31 formation	RINL significantly increased GTP-Rab21, GTP-Rab22, and GTP-Rab31 formation						
Nc1nc2c(ncn2[C@@H]2O[C@H](COP(=O)(O)OP(=O)(O)OP(O)(O)=S)[C@@H](O)[C@H]2O)c(=O)[nH]1 [GTPgammaS]						Rabex-5 strongly, as opposed to RINL, accelerated GTPgammaS binding to Rab21	RINL accelerated GTPgammaS binding to Rab22 and Rab31	RINL accelerated GTPgammaS binding to Rab22 and Rab31			
Nc1nc2c(ncn2[C@@H]2O[C@H](COP(=O)(O)OP(=O)(O)O)[C@@H](O)[C@H]2O)c(=O)[nH]1 [GDP]	The radioactivity of GTP and GDP was quantified	The radioactivity of GTP and GDP was quantified	The radioactivity of GTP and GDP was quantified	The radioactivity of GTP and GDP was quantified	The radioactivity of GTP and GDP was quantified				The radioactivity of GTP and GDP was quantified	The radioactivity of GTP and GDP was quantified	
B1											4

— paper PMC3264577, “RINL, Guanine Nucleotide Exchange Factor Rab5-Subfamily, Is Involved in the EphA8-Degradation Pathway with Odin” (PLoS ONE, 2012)
